Test results taken from patent US20260256792A1, “TREATMENT OF CHRONIC SPONTANEOUS URTICARIA BY ADMINISTERING (R)-2-[3-[4-AMINO-3-(2-FLUORO-4-PHENOXY-PHENYL)PYRAZOLO[3,4-D]PYRIMIDIN-1-YL]PIPERIDINE-1-CARBONYL]-4-METHYL-4-[4-(OXETAN-3-YL)PIPERAZIN-1-YL]PENT-2-ENENITRILE” (priority 2023, published 2026).

Test system: moderate-to-severe chronic spontaneous urticaria (CSU)
Assay: Phase 2 CSU study: urticaria activity score over 7 days (UAS7)
Type: in vivo, human
Conditions: Omalizumab-Naïve
Excerpt: The study comprises a 12 week, randomized, double-blind, placebo-controlled, multi-center, dose-ranging efficacy and safety phase, followed by a 40 week open label extension (OLE) phase (see FIG. 1). The study consists of three phases and an optional OLE phase. […] Clinically, CSU is characterized by the spontaneous and recurrent appearance of pruritic hives. The proposed primary endpoints were the UAS7 at Week 12 in EU and EU reference countries and the ISS7 in the US. Regardless of where a participant was from, all assessments were the same. The UAS7 score is a composite score containing both the HSS7 and the ISS7. This allowed a global assessment of the two key components of urticaria: hives and itch. […] The UAS is a validated PRO measure. […] The daily UAS scores range from 0 to 6 point/day. […] Patients were to complete the UAS using the e-diary. […] The following secondary endpoints were to be analyzed using the same approach as for the primary endpoint: • Change from baseline in UAS7 at Week 4 • Change from baseline in UAS7 at Week 12 (for US and US reference countries) • Change from baseline in ISS7 at Week 12 (except US and US reference countries) • Change from baseline in HSS7 at Week 12 The following responder secondary endpoints were to be analyzed using the Cochran-Mantel-Haenszel test adjusted by region: • Proportion of participants with UAS7<6 at Week 12 • Proportion of participants with UAS7=0 at Week 12 Participants who received selected prohibited medications and/or rescue medications were to be considered as non-responders for time points after the medication usage. For other participants, all available data including those collected during the off-treatment period were to be used to determine the responder/non-responder status. Missing data were to be considered as non-responders.

[1] = Age group (years) ≥44 (Median), 400 mg QPM
[2] = Age group (years) ≥44 (Median), 400 mg TID
[3] = Age group (years) ≥65, 400 mg BID
[4] = Age group (years) ≥65, 400 mg QPM
[5] = Age group (years) ≥65, 400 mg TID
[6] = Baseline BHRA BHRA+, 400 mg BID
[7] = Baseline BHRA BHRA+, 400 mg QPM
[8] = Baseline BHRA BHRA+, 400 mg TID
[9] = Baseline BHRA BHRA−, 400 mg BID
[10] = Baseline BHRA BHRA−, 400 mg QPM
[11] = Baseline BHRA BHRA−, 400 mg TID
[12] = Baseline Eosinophils (10^9/L) <0.150, 400 mg BID
[13] = Baseline Eosinophils (10^9/L) <0.150, 400 mg TID
[14] = Baseline Eosinophils (10^9/L) <0.165 (Median), 400 mg BID
[15] = Baseline Eosinophils (10^9/L) <0.165 (Median), 400 mg QPM
[16] = Baseline Eosinophils (10^9/L) <0.165 (Median), 400 mg TID
[17] = Baseline Eosinophils (10^9/L) <0.3, 400 mg BID
[18] = Baseline Eosinophils (10^9/L) <0.3, 400 mg QPM
[19] = Baseline Eosinophils (10^9/L) <0.3, 400 mg TID
[20] = Baseline Eosinophils (10^9/L) ≥0.150, 400 mg BID
[21] = Baseline Eosinophils (10^9/L) ≥0.150, 400 mg TID
[22] = Baseline Eosinophils (10^9/L) ≥0.165 (Median), 400 mg BID
[23] = Baseline Eosinophils (10^9/L) ≥0.165 (Median), 400 mg QPM
[24] = Baseline Eosinophils (10^9/L) ≥0.165 (Median), 400 mg TID

Compound: CC(C)(C=C(C#N)C(=O)N1CCC[C@@H](n2nc(-c3ccc(Oc4ccccc4)cc3F)c3c(N)ncnc32)C1)N1CCN(C2COC2)CC1 [rilzabrutinib, (R)-2-[3-[4-amino-3-(2-fluoro-4-phenoxy-phenyl)pyrazolo[3,4-d]pyrimidin-1-yl]piperidine-1-carbonyl]-4-methyl-4-[4-(oxetan-3-yl)piperazin-1-yl]pent-2-enenitrile]
- Change from Baseline in UAS7 at Week 12: LS Mean Diff vs. placebo (95% CI) [1]: 2.72 (−5.76, 11.20)
- Change from Baseline in UAS7 at Week 12: Mean (SD) [1]: −10.71 (7.99)
- Change from Baseline in UAS7 at Week 12: LS Mean (SE) [2]: −17.54 (2.39)
- Change from Baseline in UAS7 at Week 12: LS Mean Diff vs. placebo (95% CI) [2]: −5.98 (−13.92, 1.95)
- Change from Baseline in UAS7 at Week 12: Mean (SD) [2]: −19.17 (11.98)
- Change from Baseline in UAS7 at Week 12: LS Mean (SE) [3]: −21.85 (10.98)
- Change from Baseline in UAS7 at Week 12: Mean (SD) [3]: −29.00 (NC)^
- Change from Baseline in UAS7 at Week 12: LS Mean (SE) [4]: −1.73 (17.36)
- Change from Baseline in UAS7 at Week 12: LS Mean Diff vs. placebo (95% CI) [4]: −3.19 (−44.28, 37.89)
- Change from Baseline in UAS7 at Week 12: Mean (SD) [4]: −16.33 (NC) ^
- Change from Baseline in UAS7 at Week 12: LS Mean (SE) [5]: −23.81 (7.07)
- Change from Baseline in UAS7 at Week 12: Mean (SD) [5]: −24.13 (14.17)
- Change from Baseline in UAS7 at Week 12: LS Mean (SE) [6]: −19.58 (5.46)
- Change from Baseline in UAS7 at Week 12: LS Mean Diff vs. placebo (95% CI) [6]: −10.09 (−27.02, 6.84)
- Change from Baseline in UAS7 at Week 12: Mean (SD) [6]: −19.50 (10.03)
- Change from Baseline in UAS7 at Week 12: LS Mean (SE) [7]: −17.03 (6.45)
- Change from Baseline in UAS7 at Week 12: LS Mean Diff vs. placebo (95% CI) [7]: −7.53 (−24.53, 9.46)
- Change from Baseline in UAS7 at Week 12: Mean (SD) [7]: −19.94 (5.28)
- Change from Baseline in UAS7 at Week 12: LS Mean (SE) [8]: −22.12 (5.72)
- Change from Baseline in UAS7 at Week 12: LS Mean Diff vs. placebo (95% CI) [8]: −12.63 (−29.25, 4.00)
- Change from Baseline in UAS7 at Week 12: Mean (SD) [8]: −22.13 (16.40)
- Change from Baseline in UAS7 at Week 12: LS Mean (SE) [9]: −12.39 (2.21)
- Change from Baseline in UAS7 at Week 12: LS Mean Diff vs. placebo (95% CI) [9]: −2.42 (−8.35, 3.52)
- Change from Baseline in UAS7 at Week 12: LS Mean (SE) [10]: −8.95 (2.08)
- Change from Baseline in UAS7 at Week 12: LS Mean Diff vs. placebo (95% CI) [10]: 1.02 (−4.73, 6.78)
- Change from Baseline in UAS7 at Week 12: Mean (SD) [10]: −9.96 (9.08)
- Change from Baseline in UAS7 at Week 12: LS Mean (SE) [11]: −16.51 (2.11)
- Change from Baseline in UAS7 at Week 12: LS Mean Diff vs. placebo (95% CI) [11]: −6.53 (−12.28, −0.79)
- Change from Baseline in UAS7 at Week 12: Mean (SD) [11]: −18.52 (10.75)
- Change from Baseline in UAS7 at Week 12: LS Mean Diff vs. placebo (95% CI) (Baseline BMI (kg/m^2) ≥30, 400 mg BID): −1.65 (−13.49, 10.19)
- Change from Baseline in UAS7 at Week 12: LS Mean Diff vs. placebo (95% CI) (Baseline BMI (kg/m^2) ≥30, 400 mg QPM): −0.43 (−11.59, 10.72)
- Change from Baseline in UAS7 at Week 12: LS Mean Diff vs. placebo (95% CI) (Baseline BMI (kg/m^2) ≥30, 400 mg TID): −7.58 (−20.66, 5.50)
- Change from Baseline in UAS7 at Week 12: LS Mean (SE) [12]: −13.60 (3.19)
- Change from Baseline in UAS7 at Week 12: LS Mean Diff vs. placebo (95% CI) [12]: −0.54 (−8.95, 7.87)
- Change from Baseline in UAS7 at Week 12: LS Mean (SE) [13]: −20.09 (3.11)
- Change from Baseline in UAS7 at Week 12: LS Mean Diff vs. placebo (95% CI) [13]: −7.04 (−15.34, 1.27)
- Change from Baseline in UAS7 at Week 12: LS Mean (SE) [14]: −14.30 (2.83)
- Change from Baseline in UAS7 at Week 12: LS Mean Diff vs. placebo (95% CI) [14]: −1.83 (−9.50, 5.84)
- Change from Baseline in UAS7 at Week 12: Mean (SD) [14]: −11.24 (8.98)
- Change from Baseline in UAS7 at Week 12: LS Mean (SE) [15]: −7.71 (2.71)
- Change from Baseline in UAS7 at Week 12: LS Mean Diff vs. placebo (95% CI) [15]: 4.76 (−2.75, 12.26)
- Change from Baseline in UAS7 at Week 12: Mean (SD) [15]: 9.46 (8.63)
- Change from Baseline in UAS7 at Week 12: LS Mean (SE) [16]: −19.82 (2.96)
- Change from Baseline in UAS7 at Week 12: LS Mean Diff vs. placebo (95% CI) [16]: −7.36 (−15.23, 0.52)
- Change from Baseline in UAS7 at Week 12: Mean (SD) [16]: −21.57 (13.01)
- Change from Baseline in UAS7 at Week 12: LS Mean (SE) [17]: −15.05 (2.31)
- Change from Baseline in UAS7 at Week 12: LS Mean Diff vs. placebo (95% CI) [17]: −4.89 (−11.04, 1.26)
- Change from Baseline in UAS7 at Week 12: Mean (SD) [17]: −14.90 (12.30)
- Change from Baseline in UAS7 at Week 12: LS Mean (SE) [18]: −9.19 (2.15)
- Change from Baseline in UAS7 at Week 12: LS Mean Diff vs. placebo (95% CI) [18]: 0.97 (−5.00, 6.93)
- Change from Baseline in UAS7 at Week 12: Mean (SD) [18]: −10.75 (8.91)
- Change from Baseline in UAS7 at Week 12: LS Mean (SE) [19]: −18.29 (2.31)
- Change from Baseline in UAS7 at Week 12: LS Mean Diff vs. placebo (95% CI) [19]: −8.14 (−14.29, −1.98)
- Change from Baseline in UAS7 at Week 12: Mean (SD) [19]: −19.99 (12.00)
- Change from Baseline in UAS7 at Week 12: LS Mean (SE) [20]: −14.57 (2.57)
- Change from Baseline in UAS7 at Week 12: LS Mean Diff vs. placebo (95% CI) [20]: −7.68 (−15.25, −0.11)
- Change from Baseline in UAS7 at Week 12: LS Mean (SE) [21]: −14.80 (2.58)
- Change from Baseline in UAS7 at Week 12: LS Mean Diff vs. placebo (95% CI) [21]: −7.92 (−15.27, −0.56)
- Change from Baseline in UAS7 at Week 12: LS Mean (SE) [22]: −14.13 (2.87)
- Change from Baseline in UAS7 at Week 12: LS Mean Diff vs. placebo (95% CI) [22]: −7.01 (−15.24, 1.22)
- Change from Baseline in UAS7 at Week 12: Mean (SD) [22]: −17.73 (14.16)
- Change from Baseline in UAS7 at Week 12: LS Mean (SE) [23]: −10.83 (2.83)
- Change from Baseline in UAS7 at Week 12: LS Mean Diff vs. placebo (95% CI) [23]: −3.71 (−11.80, 4.38)
- Change from Baseline in UAS7 at Week 12: Mean (SD) [23]: −11.84 (10.30)
- Change from Baseline in UAS7 at Week 12: LS Mean (SE) [24]: −14.63 (2.71)
- Change from Baseline in UAS7 at Week 12: LS Mean Diff vs. placebo (95% CI) [24]: −7.52 (−15.32, 0.28)
